We go through nine compounds from patent publication US7365055B2, “Derivatives of morphine-6-glucuronide, pharmaceutical compositions containing them, their preparation method and their uses” (BTG International Limited, priority 2003, dated 2008).

Assay [1] has as its system opioid receptors. Conditions: background statement; cited from earlier work.
Assay [2] has as its system mouse. The assay can be described thus: tail flick test (analgesic effect). The assay is classed as in vivo. Conditions: mice, intravenous route. For orientation: In hot-plate and tail-flick tests a longer latency is read as antinociception.
In assay [3] the target is T1, μ receptors (Rattus norvegicus, UniProt P33535).
T1 construct: homogenates of rat cerebral cortex membrane; from tissue; host or cells: rat cerebral cortex membrane homogenate
Put plainly: affinity to the μ receptors, [3H]DAMGO binding, rat cerebral cortex membrane homogenates. On the procedure:
(§1) The affinity of M6G and of morphine was compared to that of the M6G derivatives according to the invention for the opioid receptors μ (mu) and κ (kappa).
(§2) The non-specific binding was determined by means of the addition to the labelled ligands of naloxone 10 μM.
(§3) After incubation, the samples were filtered on glass fibres (GF/B, Packard) previously incubated with 0.3% polyethyleneimine and rinsed several times with 50 mM of cold Tris-HCl using a “96-sample cell harvester” (Unifilter, Packard). The filters were then dried and the radioactivity counted.

For assay [4], the target named is T2, κ receptors (Cavia porcellus, UniProt P41144).
T2 construct: homogenates of guinea-pig cerebellum membrane; from tissue; host or cells: guinea-pig cerebellum membrane homogenate
The assay can be described thus: affinity to the κ receptors, [3H]U 69593 binding, guinea-pig cerebellum membrane homogenates. To be noted: 0.7 nM [3H]U 69593, 80 minutes at 22° C. On the procedure: as §1
Concentrations of M6G, morphine and the compound according to the invention of 10^−14 to 10^−6 M were used.
as §2, §3

The mark [5] stands for this setting: Affinity to the K receptors (Ki).

Read-outs that look alike come from different tables or passages of the source.

T1 sequence (P33535 whole entry): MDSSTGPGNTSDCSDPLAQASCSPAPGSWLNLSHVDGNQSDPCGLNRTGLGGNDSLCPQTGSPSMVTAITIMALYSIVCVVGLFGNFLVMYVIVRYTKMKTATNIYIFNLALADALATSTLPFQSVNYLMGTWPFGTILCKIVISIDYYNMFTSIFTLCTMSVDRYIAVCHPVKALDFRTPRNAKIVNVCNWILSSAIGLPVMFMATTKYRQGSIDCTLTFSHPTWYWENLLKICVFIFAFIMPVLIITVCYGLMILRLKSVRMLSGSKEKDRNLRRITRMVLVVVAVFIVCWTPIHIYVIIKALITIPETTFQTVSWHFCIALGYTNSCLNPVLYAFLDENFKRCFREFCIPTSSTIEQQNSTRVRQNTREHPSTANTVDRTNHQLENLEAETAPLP
T2 sequence (P41144 whole entry): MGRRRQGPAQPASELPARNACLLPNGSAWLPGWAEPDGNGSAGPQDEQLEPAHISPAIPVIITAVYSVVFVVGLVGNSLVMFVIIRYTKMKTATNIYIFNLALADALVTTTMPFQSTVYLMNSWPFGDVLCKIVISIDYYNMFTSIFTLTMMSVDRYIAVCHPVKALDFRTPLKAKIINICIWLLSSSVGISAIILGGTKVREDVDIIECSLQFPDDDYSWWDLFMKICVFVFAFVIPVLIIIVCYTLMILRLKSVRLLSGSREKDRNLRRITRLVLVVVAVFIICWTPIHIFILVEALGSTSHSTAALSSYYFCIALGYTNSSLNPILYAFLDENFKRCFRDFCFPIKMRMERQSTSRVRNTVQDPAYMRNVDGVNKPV

Turning to `CN1CC[C@]23c4c5ccc(O[C@@H]6O[C@H](C(=O)O)[C@@H](O)[C@H](O)[C@H]6O)c4O[C@H]2[C@@H](O)C=C[C@H]3[C@H]1C5` [Example M3G, morphine-3-glucuronide], the “affinity for the opioid receptors” value in assay [1] was “no affinity”.

Broadly, the Ki is the dissociation constant of the complex between target and ligand, obtained from inhibition or displacement. Regarding `CN1CCC23c4c5ccc(O)c4OC2C(OC2OC(C(=O)O)C(O)C(O)C2O)C=CC3C1C5` (stereo not drawn) [Example M6G, morphine-6-glucuronide], in assay [2], the “ED50, the dose which induces 50% of the analgesic effect” value is 0.55 mg eq./kg and the “duration of the action (analgesic activity)” value (“duration of the action” for short) is recorded as “approximately 100 minutes”. The compound also had a Ki in assay [3] of 13.6 nM. Moreover, the affinity in assay [4] (setting [5]) corresponds to a Ki of 224 nM. The “affinity for the opioid receptors” value in assay [1] is “high affinity”.

For the compound `CCN(CC)C(=O)C(CS)NC(=O)C1OC(OC2C=CC3C4Cc5ccc(O)c6c5C3(CCN4C)C2O6)C(O)C(O)C1O` (stereo not drawn) [Example M6G-Cys-DEA, M6G-Cys-DEA], the Ki in assay [3] was found to be 0.36 nM; in assay [4] (setting [5]), 1.9 nM.

In the case of `CCOC(=O)C(CS)NC(=O)C1OC(OC2C=CC3C4Cc5ccc(O)c6c5C3(CCN4C)C2O6)C(O)C(O)C1O` (stereo not drawn) [Example M6G-Cys-OEt, M6G-Cys-OEt], the results for the Ki in assay [3] and in assay [4] (setting [5]) were 1.17 nM and 11.2 nM, respectively.

Take `COC(=O)C(CS)NC(=O)C1OC(OC2C=CC3C4Cc5ccc(O)c6c5C3(CCN4C)C2O6)C(O)C(O)C1O` (stereo not drawn) [Example M6G-Cys-OMe, M6G-Cys-OMe]: the Ki in assay [3] was 1.04 nM; in assay [4] (setting [5]), 14 nM.

Turning to `CN1CC[C@]23c4c5ccc(O)c4O[C@H]2[C@@H](O[C@@H]2O[C@H](C(=O)NCCSSCCNC(=O)[C@H]4O[C@@H](O[C@H]6C=CC7[C@H]8Cc9ccc(O)c%10c9[C@@]7(CCN8C)[C@H]6O%10)[C@H](O)[C@@H](O)[C@@H]4O)[C@@H](O)[C@H](O)[C@H]2O)C=CC3[C@H]1C5` (stereo partly drawn) [M6G-Cya-Cya-M6G], the “duration of the action” value in assay [2] came to 360 min. Also, the Ki in assay [3] was 0.38 nM; in assay [4] (setting [5]), 6.22 nM.

As for `CN1CC[C@]23c4c5ccc(O)c4O[C@H]2[C@@H](O[C@@H]2OC(C(=O)NCCS)[C@@H](O)C(O)C2O)C=CC3[C@H]1C5` (stereo partly drawn) [M6G-cysteamide], the results for the Ki in assay [3] and in assay [4] (setting [5]) were 2.35 nM and 4.49 nM, respectively.

For `CN1CC[C@]23c4c5ccc(O)c4O[C@H]2[C@@H](O)C=C[C@H]3[C@H]1C5` [Morphine], in assay [2], the “ED50, the dose which induces 50% of the analgesic effect” value worked out at 2.65 mg eq./kg and the “duration of the action” value is on record as “approximately 100 minutes”.

Consider “M6G-Cya-Cya-PEG20000 [M6G-Cya-Cya-PEG200000]”, for which the Ki is 0.92 nM in assay [3] (rat cerebral cortex membrane, 1 nM [3H]DAMGO, 60 minutes at 22° C., read-out: Affinity to the μ receptors (Ki)) and 0.72 nM in assay [4] (read-out: Affinity to the K receptors (Ki)).
